Among the data in patent publication US6392032B1, “Heavily fluorinated sugar analogs” (Board of Regents University of Nebraska-Lincoln, priority 1996, dated 2002) are Qualitative solubility values, retold here.

The nature of the series: Qualitative solubility in solvents. In kind it is physicochemical.

With `OCC12OC(O)C1C(F)(F)C(F)(F)C2(F)F` (centres unmarked) [Compound 6, 1-Hydroxy-5-(5′-hydroxymethyl)-2,2,3,3,4,4-hexafluorooxane], the Qualitative solubility result runs as follows: (in CHCl3 and other solvents of lower polarity) “insoluble”; (in acetone, EtOAc, ether, and water) “soluble”.
